Measurements taken from article PMC4139061, “Structural basis of nucleoside and nucleoside drug selectivity by concentrative nucleoside transporters” (eLife, 2014).

Target: T1, hCNT3 (Homo sapiens, UniProt Q9HAS3)
T1 sequence (Q9HAS3 1-691): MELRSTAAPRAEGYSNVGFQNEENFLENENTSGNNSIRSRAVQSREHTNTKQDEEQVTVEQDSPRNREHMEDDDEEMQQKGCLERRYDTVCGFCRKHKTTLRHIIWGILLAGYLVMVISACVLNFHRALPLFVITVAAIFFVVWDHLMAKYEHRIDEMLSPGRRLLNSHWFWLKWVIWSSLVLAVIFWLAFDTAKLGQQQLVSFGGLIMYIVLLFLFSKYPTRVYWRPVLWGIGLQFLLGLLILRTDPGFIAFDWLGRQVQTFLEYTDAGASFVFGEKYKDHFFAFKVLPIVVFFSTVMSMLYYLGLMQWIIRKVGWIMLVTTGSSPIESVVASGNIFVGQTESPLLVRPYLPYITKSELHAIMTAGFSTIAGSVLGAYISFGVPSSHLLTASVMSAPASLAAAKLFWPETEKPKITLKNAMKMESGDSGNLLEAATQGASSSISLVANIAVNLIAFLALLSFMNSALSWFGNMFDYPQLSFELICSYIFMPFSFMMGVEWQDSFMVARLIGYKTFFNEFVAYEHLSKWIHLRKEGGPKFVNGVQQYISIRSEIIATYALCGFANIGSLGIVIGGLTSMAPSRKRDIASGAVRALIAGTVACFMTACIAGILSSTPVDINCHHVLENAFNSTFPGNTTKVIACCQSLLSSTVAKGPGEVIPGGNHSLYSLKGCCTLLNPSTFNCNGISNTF
Assay: two-electrode voltage-clamp of Na+ currents / total charge in Xenopus oocytes expressing hCNT3
Assay type: cell-based
From the text: To detect nucleoside transport by hCNTs, we turned to two-electrode voltage-clamp electrophysiological recording. Because hCNTs are Na^+-nucleoside symporters, one can measure the current generated by the Na^+ transport that is coupled with nucleoside transport. We injected Xenopus oocytes with mRNA coding for each of the hCNTs and measured inward Na^+ currents elicited by the addition of different nucleosides to the extracellular side.
The genes coding for the three hCNTs and vcCNT were cloned into a pGEM-HE vector. Plasmids were linearized using either SphI or NheI, and mRNA was transcribed using the mMESSAGE mMACHINE T7 Transcription Kit (Ambion, Grand Island, NY). Defolliculated Xenopus laevis oocytes were purchased from Ecocyte Bioscience (Austin, TX). Individual oocytes were injected with 40 ng of mRNA using a 10-μl microdispenser (Drummond Scientific, Broomall, PA) fitted with a tapered glass pipette tip and incubated at 17 °C for 4–5 days in ND96 buffer (96 mM NaCl, 2 mM KCl, 1 mM MgCl2, 1.8 mM CaCl2, and 5 mM HEPES pH 7.5) with 0.1% penicillin and streptomycin before recording.
The oocyte-recording chamber was gravity-perfused with ND96 buffer at a rate of 2 ml/min. Membrane currents were measured using an Oocyte Clamp (OC-725C; Warner Instruments, Hamden, CT). Individual oocytes were penetrated with two microelectrodes filled with 3 M KCl (0.5–1.0 MΩ). All electrophysiological experiments were conducted at room temperature. The OC-725C Oocyte Clamp was computer-interfaced via an Axon Digidata 1550 and controlled by Axoscope software (Molecular Devices, Sunnyvale, CA). The current signals were filtered at 20 Hz and sampled at intervals of 20 ms. The signals were filtered at 0.5 Hz by use of pCLAMP 10.4 software for data presentation. […] Cells were discarded if resting membrane potentials were unstable or more positive than −30 mV. Oocyte membrane potentials were clamped at −90 mV for holding potentials to measure transporter-generated currents. All data are shown as means ± SEM.

## Cc1cc2cn([C@@H]3O[C@H](CO)[C@@H](O)C3(F)F)c(=O)nc2[nH]1 [pyrrolo-gemcitabine]
200 μM nucleoside, hCNT3-expressing Xenopus oocytes, mean of Exp. 1-14
  Total charge transported, Mean: 0.082 μC
hCNT3-expressing oocytes, 200 μM
  Na+ current on addition of nucleoside: almost no effect
Ratio of total charge, 200 μM each, hCNT3, mean of Exp. 1-14
  Qgem/Qpyr-gem, Mean: 96.071
